From ChEMBL document CHEMBL1201862, “PubChem BioAssay data set” (2004)
Each block holds one molecule with its values, some of them ahead of it. Activity calls are given as the source filed them.

Assays:
[1] = target: Luciferin 4-monooxygenase (Photinus pyralis, UniProt P08659); assay: inhibition of purified Photinus pyralis luciferase – biochemical, luminescence, dose response (AID 1891)
[2] = Luminescence Cell-Based Dose Confirmation HTS to Identify Inhibitors of Platelet Dense Granule Release. [Related pubchem assays: 1663 (Primary HTS), 1678 (Summary of Project)]; format: functional
Cytochrome P450 2C19 = Cytochrome P450 2C19 (Homo sapiens, UniProt P33261); assay: Cytochrome panel assay with activity outcomes. Panel member name: p450-cyp2c19 Compounds with AC50 equal or less than 10 uM are considered active; format: functional; settings: read-out: AC50
Cytochrome P450 1A2 = target: T1, Cytochrome P450 1A2 (Homo sapiens, UniProt P05177);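 further: PubChem cytochrome P450 panel assay, CYP1A2 panel member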
T1 sequence (P05177 whole entry): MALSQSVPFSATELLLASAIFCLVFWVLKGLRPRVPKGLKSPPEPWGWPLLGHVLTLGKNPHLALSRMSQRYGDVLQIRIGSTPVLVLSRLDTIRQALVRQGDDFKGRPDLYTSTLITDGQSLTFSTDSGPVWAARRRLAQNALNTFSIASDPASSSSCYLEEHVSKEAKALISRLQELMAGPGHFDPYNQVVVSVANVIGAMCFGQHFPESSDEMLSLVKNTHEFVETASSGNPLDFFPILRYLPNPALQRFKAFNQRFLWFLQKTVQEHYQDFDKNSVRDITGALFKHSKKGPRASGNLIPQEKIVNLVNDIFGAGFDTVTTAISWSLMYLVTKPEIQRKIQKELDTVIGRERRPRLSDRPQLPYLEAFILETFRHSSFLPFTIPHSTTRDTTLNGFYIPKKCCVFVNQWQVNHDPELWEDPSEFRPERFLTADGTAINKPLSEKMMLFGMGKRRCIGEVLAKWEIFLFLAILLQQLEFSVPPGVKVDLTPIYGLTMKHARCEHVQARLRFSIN

Cytochrome P450 2C9 = Cytochrome P450 2C9 (Homo sapiens, UniProt P11712)
[3] = intracellular Trypanosoma cruzi inhibitors in host cells – cell-based, plate reader, cherry-pick samples, set 3, dose response (AID 651818); format: functional;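 further: compounds incubated with infected cells for about four days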
cells [4] = format: functional, cell-based
cells [5] = format: functional, cell-based; remark: listed apart in the source
Coagulation factor XII = target: T2, Coagulation factor XII (Homo sapiens, UniProt P00748); format: functional;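 further: activated factor XIIa alpha cleaving a fluorogenic AMC peptide substrate; inhibitor potency from loss of enzyme activity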
T2 sequence (P00748 whole entry): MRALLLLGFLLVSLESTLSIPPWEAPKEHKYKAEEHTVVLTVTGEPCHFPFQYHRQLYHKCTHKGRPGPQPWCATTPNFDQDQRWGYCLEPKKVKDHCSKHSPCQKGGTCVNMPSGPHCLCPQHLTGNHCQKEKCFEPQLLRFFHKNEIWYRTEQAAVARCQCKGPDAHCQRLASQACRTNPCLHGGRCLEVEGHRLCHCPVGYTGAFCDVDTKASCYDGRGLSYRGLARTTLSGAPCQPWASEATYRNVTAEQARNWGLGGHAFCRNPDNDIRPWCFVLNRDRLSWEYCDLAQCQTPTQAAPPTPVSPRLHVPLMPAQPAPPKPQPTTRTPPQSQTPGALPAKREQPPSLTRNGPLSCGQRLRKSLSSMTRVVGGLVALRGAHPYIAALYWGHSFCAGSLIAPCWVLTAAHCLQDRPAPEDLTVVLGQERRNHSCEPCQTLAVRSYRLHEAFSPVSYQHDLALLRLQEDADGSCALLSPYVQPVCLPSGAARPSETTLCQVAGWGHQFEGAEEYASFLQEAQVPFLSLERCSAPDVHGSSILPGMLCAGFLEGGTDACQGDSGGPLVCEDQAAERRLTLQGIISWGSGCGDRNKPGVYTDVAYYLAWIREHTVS

[6] = target: T3, Heat shock factor protein 1 (Mus musculus, UniProt P38532); assay: enhancement of HSF1-driven luciferase signal – cell-based, NIH3T3, luminescence, dose retest, confirmation (AID 435004); format: functional;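 further: stress induced by proteasome inhibitor MG132 added 30 min after compound; luciferase reporter driven by HSF1 response element in NIH3T3 cells; actives raise luminescence as potentiators of the MG132 stress response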
T3 sequence (P38532 whole entry): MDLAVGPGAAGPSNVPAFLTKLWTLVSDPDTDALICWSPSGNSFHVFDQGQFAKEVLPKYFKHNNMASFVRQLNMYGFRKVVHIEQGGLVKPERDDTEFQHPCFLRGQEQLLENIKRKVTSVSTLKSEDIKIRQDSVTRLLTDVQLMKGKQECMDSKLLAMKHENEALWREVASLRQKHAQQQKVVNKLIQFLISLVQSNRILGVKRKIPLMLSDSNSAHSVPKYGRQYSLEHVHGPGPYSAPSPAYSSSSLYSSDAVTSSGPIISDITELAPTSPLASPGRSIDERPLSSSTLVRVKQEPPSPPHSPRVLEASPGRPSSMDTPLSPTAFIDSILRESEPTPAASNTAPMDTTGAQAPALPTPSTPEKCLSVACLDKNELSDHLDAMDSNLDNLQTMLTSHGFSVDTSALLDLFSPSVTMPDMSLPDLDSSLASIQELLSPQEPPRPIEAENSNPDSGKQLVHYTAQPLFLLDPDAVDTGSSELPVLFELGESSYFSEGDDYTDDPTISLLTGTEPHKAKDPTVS

[7] = reduction of Shn3 3'UTR-driven luciferase in osteoblasts – cell-based, Clone20 osteoblasts, firefly luciferase, cherry-picked, dose response (AID 624132); format: functional;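 further: firefly luciferase luminescence from reporter carrying the Shn3 3'UTR in osteoblasts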
[8] = loss of viability in HepG2 cells – cell-based, CellTiter-Glo, cherry-picked, cytotoxicity control for Shn3 inhibitor project, dose response (AID 624134); format: functional
[9] = non-specific 3'UTR reporter inhibition in Clone20-Shn3RL – cell-based, Renilla luciferase, cherry-picked, counter-screen for Shn3 inhibitor project, dose response (AID 624133); format: functional

Cytochrome P450 2C19, sequence (P33261 whole entry): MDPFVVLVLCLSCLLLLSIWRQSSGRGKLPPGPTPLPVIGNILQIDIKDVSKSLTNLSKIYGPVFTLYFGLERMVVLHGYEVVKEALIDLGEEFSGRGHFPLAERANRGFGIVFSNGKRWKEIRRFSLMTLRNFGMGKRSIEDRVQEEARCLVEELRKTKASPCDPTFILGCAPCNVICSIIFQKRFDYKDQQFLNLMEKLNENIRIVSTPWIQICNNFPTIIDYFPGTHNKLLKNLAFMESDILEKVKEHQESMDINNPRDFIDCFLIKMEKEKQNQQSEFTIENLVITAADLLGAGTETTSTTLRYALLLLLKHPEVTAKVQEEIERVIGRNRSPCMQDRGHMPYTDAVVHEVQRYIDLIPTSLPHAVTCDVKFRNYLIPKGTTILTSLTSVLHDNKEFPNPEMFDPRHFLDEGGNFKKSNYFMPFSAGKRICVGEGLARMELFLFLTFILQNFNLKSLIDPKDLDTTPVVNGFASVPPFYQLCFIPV
Cytochrome P450 2C9, sequence (P11712 whole entry): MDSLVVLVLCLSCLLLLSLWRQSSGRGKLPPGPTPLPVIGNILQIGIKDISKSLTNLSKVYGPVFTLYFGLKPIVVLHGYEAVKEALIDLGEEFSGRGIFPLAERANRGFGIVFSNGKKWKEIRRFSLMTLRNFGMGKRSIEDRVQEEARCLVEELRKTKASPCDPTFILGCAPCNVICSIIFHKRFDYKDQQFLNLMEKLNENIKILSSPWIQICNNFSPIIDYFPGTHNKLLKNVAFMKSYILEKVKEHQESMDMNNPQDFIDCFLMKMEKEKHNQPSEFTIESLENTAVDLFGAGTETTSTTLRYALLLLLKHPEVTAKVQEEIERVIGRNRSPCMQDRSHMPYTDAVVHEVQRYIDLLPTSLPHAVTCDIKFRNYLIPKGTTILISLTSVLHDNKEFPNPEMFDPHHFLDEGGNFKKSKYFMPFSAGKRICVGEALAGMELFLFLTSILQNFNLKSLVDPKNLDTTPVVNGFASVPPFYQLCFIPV
Luciferin 4-monooxygenase, sequence (P08659 whole entry): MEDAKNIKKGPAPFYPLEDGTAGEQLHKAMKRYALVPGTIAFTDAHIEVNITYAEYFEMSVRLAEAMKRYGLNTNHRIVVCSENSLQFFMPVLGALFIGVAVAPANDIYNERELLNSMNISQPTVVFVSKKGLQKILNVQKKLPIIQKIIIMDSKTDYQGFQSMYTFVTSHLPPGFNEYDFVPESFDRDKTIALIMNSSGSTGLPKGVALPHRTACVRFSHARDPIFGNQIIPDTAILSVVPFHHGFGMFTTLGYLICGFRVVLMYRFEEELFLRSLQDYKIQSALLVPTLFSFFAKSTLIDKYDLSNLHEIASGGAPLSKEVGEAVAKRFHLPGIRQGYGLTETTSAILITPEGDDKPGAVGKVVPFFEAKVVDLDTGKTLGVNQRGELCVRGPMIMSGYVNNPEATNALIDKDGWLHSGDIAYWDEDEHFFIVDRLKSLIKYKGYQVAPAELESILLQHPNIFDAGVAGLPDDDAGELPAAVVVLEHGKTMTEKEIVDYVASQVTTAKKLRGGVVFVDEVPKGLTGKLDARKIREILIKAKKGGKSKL

Structure (SMILES): Cc1c(C(c2cccc([N+](=O)[O-])c2O)c2c(C)n(C)n(-c3ccccc3)c2=O)c(=O)n(-c2ccccc2)n1C
EC50 [1]: > 112 µM (not active)
EC50 [2]: > 112 µM (not active)
AC50 (Cytochrome P450 2C19): 35.5 µM (inconclusive)
AC50 (Cytochrome P450 1A2): 15.8 µM (inconclusive)
AC50 (Cytochrome P450 2C9): 0.00562 µM (inconclusive)

Structure (SMILES): C[C@@H]1CN([C@H](C)CO)C(=O)c2cccc(NC(=O)c3ccncc3)c2O[C@@H]1CN(C)Cc1ccc(-c2ccccc2)cc1
AC50 [3]: 4.37 µM (active)

Structure (SMILES): COc1ccccc1CNC(=O)c1cccc(NC(=O)c2ccccc2)c1
EC50 (cells [4]): > 350 µM (not active)
EC50 (cells [5]): 56.2 µM (active)

IC50 (Coagulation factor XII): > 50 µM (inactive)
Structure (SMILES): CN1CCN(c2ccc(CNS(=O)(=O)Cc3ccc(Cl)cc3)cc2)CC1

IC50 (Coagulation factor XII): > 50 µM (inactive)
Structure (SMILES): COc1cc(Cl)c(C)cc1NC(=O)CSC

Structure (SMILES): CC1=NC(C#N)=C(C#N)NC(C)(C)C1
EC50 (cells [4]): > 350 µM (not active)
EC50 (cells [5]): > 350 µM (not active)

Structure (SMILES): CC(=O)NCCC(=O)Nc1cc(S(=O)(=O)N2CCOCC2)ccc1N1CCOCC1
EC50 (cells [4]): > 350 µM (not active)
EC50 (cells [5]): > 350 µM (not active)

IC50 (Coagulation factor XII): > 50 µM (inactive)
Structure (SMILES): CCCCCCCCCC(=O)Nn1cnc2ccccc2c1=O

Structure (SMILES): CCCCCn1c(N2CCN(c3cccc(Cl)c3)CC2)nc2c1c(=O)[nH]c(=O)n2C
EC50 [6]: > 260 µM (inactive)
AC50 [7]: 21.8 µM (active)
AC50 [8]: 59.4 µM (active)
AC50 [9]: 18.3 µM (active)
